ChEMBL document CHEMBL1129592 (J Med Chem, 1996)

Columns and labels:
[1] = Selectivity ratio of IC50 values of 5-hydroxytryptamine 1A receptor vs 5-hydroxytryptamine 2 receptor
D(2) dopamine receptor = D(2) dopamine receptor (Rattus norvegicus, UniProt P61169); experiment: Binding affinity towards rat Dopamine receptor D2 was evaluated using [3H]- spiroperidol as radioligand
[2] = Selectivity ratio of IC50 values of 5-hydroxytryptamine 1A receptor vs dopamine receptor D2
[3] = biological target: 5-hydroxytryptamine receptor 2A (Rattus norvegicus, UniProt P14842); experiment: Binding affinity towards rat 5-hydroxytryptamine 2A receptor was evaluated using [3H]- ketanserin as radioligand
Chain of 5-hydroxytryptamine receptor 2A (P14842 whole entry): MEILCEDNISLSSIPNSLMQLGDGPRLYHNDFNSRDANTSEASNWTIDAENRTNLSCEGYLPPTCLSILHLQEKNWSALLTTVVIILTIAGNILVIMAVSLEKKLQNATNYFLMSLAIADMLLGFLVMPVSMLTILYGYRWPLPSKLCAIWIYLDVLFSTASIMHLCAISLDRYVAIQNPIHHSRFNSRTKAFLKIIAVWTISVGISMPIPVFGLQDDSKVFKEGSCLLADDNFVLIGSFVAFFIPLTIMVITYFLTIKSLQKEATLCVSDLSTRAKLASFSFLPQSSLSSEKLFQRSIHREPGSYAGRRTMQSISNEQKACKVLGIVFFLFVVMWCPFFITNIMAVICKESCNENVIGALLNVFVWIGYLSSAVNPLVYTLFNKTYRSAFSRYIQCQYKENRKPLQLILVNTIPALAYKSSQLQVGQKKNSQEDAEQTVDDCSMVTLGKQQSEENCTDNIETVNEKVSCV

[4] = biological target: T1, 5-hydroxytryptamine receptor 1A (Rattus norvegicus, UniProt P19327); experiment: Binding affinity towards rat 5-hydroxytryptamine 1A receptor was evaluated using [3H]8-OH-DPAT as radioligand
T1 sequence (P19327 whole entry): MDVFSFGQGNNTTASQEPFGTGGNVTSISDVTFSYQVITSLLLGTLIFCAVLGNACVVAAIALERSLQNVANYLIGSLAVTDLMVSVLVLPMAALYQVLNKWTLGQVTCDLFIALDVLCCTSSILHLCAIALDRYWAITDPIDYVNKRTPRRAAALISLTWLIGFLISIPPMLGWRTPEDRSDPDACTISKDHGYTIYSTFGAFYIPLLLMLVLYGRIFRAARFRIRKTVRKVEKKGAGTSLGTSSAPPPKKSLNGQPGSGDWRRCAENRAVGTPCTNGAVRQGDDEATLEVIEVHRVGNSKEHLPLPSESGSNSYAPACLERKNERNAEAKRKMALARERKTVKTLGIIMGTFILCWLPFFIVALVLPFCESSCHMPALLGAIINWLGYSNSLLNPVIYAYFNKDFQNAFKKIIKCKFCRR

[5] = Selectivity ratio of IC50 values of 5-hydroxytryptamine 1A receptor vs Alpha-2 adrenergic receptor
[6] = biological target: T2, Adrenergic receptor alpha-2 (Rattus norvegicus, UniProt P22086+P19328+P22909); experiment: Binding affinity towards rat Alpha-2 adrenergic receptor was evaluated using [3H]- yohimbine as radioligand; format: protein assay
T2 sequence (P22086 whole entry): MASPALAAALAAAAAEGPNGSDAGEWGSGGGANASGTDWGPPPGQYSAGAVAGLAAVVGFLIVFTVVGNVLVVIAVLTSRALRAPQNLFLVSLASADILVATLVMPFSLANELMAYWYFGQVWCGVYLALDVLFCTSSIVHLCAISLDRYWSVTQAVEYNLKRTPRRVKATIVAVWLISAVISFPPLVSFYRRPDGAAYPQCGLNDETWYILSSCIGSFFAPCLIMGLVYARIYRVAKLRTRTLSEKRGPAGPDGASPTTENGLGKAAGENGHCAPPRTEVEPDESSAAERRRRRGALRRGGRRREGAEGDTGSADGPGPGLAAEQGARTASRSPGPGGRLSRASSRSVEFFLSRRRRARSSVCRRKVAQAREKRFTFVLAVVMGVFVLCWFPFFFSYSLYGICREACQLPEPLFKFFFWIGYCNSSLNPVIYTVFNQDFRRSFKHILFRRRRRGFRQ
T2 sequence (P19328 whole entry): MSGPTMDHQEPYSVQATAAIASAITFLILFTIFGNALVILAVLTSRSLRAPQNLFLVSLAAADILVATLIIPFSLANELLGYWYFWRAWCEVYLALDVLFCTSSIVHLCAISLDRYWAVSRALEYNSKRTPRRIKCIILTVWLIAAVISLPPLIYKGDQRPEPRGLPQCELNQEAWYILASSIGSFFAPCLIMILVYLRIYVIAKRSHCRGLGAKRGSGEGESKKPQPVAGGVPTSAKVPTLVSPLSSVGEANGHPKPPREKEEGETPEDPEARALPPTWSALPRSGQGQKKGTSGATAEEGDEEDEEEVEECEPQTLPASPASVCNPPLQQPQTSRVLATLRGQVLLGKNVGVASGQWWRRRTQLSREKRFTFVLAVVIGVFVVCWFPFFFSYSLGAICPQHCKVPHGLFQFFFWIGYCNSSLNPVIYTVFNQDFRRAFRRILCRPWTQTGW
T2 sequence (P22909 whole entry): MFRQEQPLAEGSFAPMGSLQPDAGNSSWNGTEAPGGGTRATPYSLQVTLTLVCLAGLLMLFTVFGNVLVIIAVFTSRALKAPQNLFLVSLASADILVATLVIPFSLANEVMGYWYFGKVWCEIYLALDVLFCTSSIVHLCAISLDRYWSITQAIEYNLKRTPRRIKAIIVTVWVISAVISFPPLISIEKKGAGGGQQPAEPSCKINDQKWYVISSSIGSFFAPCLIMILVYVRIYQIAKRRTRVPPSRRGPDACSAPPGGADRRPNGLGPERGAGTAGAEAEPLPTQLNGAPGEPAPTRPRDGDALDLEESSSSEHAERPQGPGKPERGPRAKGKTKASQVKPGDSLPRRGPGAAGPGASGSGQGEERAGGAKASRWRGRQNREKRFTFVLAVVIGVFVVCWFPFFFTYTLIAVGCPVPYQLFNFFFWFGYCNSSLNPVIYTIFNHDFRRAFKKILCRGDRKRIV

[7] = biological target: T3, Adrenergic receptor alpha-1 (Rattus norvegicus, UniProt P15823+P23944+P43140); experiment: Binding affinity towards rat Alpha-1 adrenergic receptor was evaluated using [3H]- prazosin as radioligand; format: protein assay
T3 sequence (P15823 whole entry): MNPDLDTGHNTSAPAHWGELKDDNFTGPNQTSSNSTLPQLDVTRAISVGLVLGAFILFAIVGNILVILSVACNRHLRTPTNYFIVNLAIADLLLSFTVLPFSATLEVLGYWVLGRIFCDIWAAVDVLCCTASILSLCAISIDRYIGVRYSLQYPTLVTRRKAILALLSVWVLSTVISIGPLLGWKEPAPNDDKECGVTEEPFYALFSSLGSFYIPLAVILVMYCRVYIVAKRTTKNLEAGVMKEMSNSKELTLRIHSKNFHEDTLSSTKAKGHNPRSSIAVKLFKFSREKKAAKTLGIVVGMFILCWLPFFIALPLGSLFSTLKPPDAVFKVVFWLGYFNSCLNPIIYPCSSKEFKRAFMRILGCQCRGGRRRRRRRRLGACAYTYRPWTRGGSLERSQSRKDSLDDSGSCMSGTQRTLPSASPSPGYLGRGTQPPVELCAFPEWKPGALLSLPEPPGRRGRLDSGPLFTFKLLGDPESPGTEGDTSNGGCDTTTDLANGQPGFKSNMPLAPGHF
T3 sequence (P23944 whole entry): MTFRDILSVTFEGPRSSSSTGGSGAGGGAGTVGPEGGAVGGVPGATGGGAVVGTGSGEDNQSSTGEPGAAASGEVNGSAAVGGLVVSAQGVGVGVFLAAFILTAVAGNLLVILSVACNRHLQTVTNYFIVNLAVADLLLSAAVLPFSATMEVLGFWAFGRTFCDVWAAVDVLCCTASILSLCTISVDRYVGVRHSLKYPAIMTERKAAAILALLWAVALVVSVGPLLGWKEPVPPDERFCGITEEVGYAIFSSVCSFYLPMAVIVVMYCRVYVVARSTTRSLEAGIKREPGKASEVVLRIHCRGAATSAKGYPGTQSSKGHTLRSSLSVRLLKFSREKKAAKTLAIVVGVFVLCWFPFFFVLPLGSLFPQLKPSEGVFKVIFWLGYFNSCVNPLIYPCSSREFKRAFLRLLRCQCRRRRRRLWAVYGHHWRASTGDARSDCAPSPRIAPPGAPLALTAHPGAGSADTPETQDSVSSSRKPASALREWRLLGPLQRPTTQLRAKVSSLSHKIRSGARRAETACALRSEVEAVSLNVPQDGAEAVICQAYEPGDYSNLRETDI
T3 sequence (P43140 whole entry): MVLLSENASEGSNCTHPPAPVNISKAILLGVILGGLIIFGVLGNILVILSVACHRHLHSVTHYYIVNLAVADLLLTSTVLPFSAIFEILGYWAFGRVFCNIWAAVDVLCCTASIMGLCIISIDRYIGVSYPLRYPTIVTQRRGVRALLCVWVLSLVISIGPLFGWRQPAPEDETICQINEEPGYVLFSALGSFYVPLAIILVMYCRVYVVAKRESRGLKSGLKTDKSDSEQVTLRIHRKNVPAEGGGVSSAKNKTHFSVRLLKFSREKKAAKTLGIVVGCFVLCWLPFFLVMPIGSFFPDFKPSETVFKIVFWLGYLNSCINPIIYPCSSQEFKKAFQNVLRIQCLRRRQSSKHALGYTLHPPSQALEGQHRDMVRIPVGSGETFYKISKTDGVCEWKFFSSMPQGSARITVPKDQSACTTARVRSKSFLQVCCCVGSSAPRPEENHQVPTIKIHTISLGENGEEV

Chain of D(2) dopamine receptor (P61169 whole entry): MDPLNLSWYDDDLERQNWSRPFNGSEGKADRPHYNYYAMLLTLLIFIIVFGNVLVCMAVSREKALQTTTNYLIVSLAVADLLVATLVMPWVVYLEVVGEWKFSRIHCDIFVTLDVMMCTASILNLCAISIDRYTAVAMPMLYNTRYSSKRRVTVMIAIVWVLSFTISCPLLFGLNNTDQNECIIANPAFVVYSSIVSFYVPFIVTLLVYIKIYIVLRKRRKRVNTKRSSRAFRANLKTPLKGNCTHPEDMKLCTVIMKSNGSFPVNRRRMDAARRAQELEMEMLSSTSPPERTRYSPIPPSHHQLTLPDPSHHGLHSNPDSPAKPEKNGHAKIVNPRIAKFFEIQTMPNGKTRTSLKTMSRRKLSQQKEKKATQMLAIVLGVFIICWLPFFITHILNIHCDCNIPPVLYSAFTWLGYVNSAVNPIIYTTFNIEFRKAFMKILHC

SMILES	Selectivity ratio [1]	IC50 (D(2) dopamine receptor) [µM]	Selectivity ratio [2]	IC50 [3] [µM]	IC50 [4] [µM]	Selectivity ratio [5]	IC50 [6] [µM]	IC50 [7] [µM]
COc1ccc2c(c1)CC(CCN1CCN(c3ccccc3)CC1)CC2 (centres undefined)	64	0.1	28	0.23	0.0036	72	0.26	0.08
CCCN(CCC)C1CCc2cccc(O)c2C1 (centres undefined) [8-OH-DPAT]	–	–	–	> 10	–	–	–	–
COc1ccc2c(c1)CCCC2CCCN1CCN(c2ccccc2)CC1 (centres undefined)	30	0.091	17	0.16	–	31	0.17	0.045
COc1cccc2c1CCC/C2=C\CCN1CCN(c2ccccc2)CC1	31	0.1	5	0.58	–	15	0.29	0.12
COc1cccc2c1C(CCCN1CCN(c3ccccc3)CC1)CCC2 (centres undefined)	11	0.062	1	0.61	0.056	3	0.14	0.13
COc1ccc2c(c1)C(CCCN1CCN(c3ccccc3)CC1)=CCC2	0.8	0.157	1	0.119	–	–	–	0.173
COc1ccc2c(c1)CCC(CCN1CCN(c3ccccc3)CC1)C2 (centres undefined)	23	0.12	32	0.086	0.0037	43	0.16	0.079
COc1cccc2c1CCCC2CCN1CCN(c2ccccc2)CC1 (centres undefined)	0.1	0.21	2	0.012	0.14	0.2	0.022	0.084
COc1cccc2c1CCCC2CCCN1CCN(c2ccccc2)CC1 (centres undefined)	460	–	220	0.23	–	520	–	–
COc1ccc2c(c1)C=C(CCN1CCN(c3ccccc3)CC1)CC2	15	0.136	22	0.106	0.0073	18	0.122	0.058

Other lines, results leading:

Selectivity ratio [1]	IC50 (D(2) dopamine receptor) [µM]	Selectivity ratio [2]	IC50 [3] [µM]	IC50 [4] [µM]	Selectivity ratio [5]	IC50 [6] [µM]	IC50 [7] [µM]	SMILES
1	0.276	1	0.241	0.191	2	0.357	0.194	COc1cccc2c1CCC(CCN1CCN(c3ccccc3)CC1)=C2
3	0.13	2	0.16	0.054	11	0.6	0.1	COc1cccc2c1CCC(CCN1CCN(c3ccccc3)CC1)C2 (centres undefined)
–	–	–	0.33	–	–	–	–	COc1ccccc1N1CCN(CCCC2CCCc3c(OC)cccc32)CC1 (centres undefined)
7	0.17	24	0.056	0.0082	16	0.13	0.088	COc1ccc2c(c1)CCC(CCN1CCN(c3ccccc3)CC1)=C2
462	–	259	0.25	–	89	–	–	COc1cccc2c1CCCC2CCCN1CCN(c2ccccn2)CC1 (centres undefined)
28	0.11	7	0.42	0.015	51	0.77	0.13	COc1cccc2c1CCCC2CCCCN1CCN(c2ccccc2)CC1 (centres undefined)
11	–	17	0.204	–	–	–	–	COc1cccc2c1CCC=C2CCCN1CCN(c2ccccc2)CC1
